# Source: ChEMBL document CHEMBL1201862, “PubChem BioAssay data set” (2004)
# Active and inactive are the calls of the source. No stated cut-off is given here; in the data, actives have a measured IC50 and inactives only a lower limit.
# Target: Envelope glycoprotein gp160 (Human immunodeficiency virus 1, UniProt Q6QLK5)
# Assay: inhibitors of HIV fusion peptide binding, primary screen, biochemical, uHTS, fluorescence dequenching (AID 1986)
# Envelope glycoprotein gp160, sequence (Q6QLK5 whole entry, the tested form may be a part): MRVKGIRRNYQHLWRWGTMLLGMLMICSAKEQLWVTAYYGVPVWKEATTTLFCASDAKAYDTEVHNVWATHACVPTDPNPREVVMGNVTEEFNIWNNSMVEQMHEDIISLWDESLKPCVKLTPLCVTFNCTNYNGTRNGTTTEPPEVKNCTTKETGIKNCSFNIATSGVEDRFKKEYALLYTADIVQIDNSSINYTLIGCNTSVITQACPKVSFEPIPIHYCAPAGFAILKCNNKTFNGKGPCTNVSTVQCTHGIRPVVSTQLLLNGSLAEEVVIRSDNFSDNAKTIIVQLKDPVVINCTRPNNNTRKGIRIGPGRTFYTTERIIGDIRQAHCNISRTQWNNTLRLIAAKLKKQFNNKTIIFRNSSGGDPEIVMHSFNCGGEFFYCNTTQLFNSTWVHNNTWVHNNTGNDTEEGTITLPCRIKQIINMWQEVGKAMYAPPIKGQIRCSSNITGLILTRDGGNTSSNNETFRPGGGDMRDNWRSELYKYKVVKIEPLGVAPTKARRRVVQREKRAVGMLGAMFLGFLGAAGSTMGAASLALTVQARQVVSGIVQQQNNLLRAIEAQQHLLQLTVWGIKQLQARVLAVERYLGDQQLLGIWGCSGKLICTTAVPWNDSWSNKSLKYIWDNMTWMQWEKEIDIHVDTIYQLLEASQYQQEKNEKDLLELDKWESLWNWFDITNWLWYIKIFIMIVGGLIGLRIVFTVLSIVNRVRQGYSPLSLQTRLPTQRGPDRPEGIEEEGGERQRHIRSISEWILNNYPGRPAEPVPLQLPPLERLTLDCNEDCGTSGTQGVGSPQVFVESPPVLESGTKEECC
compound,measurement,value
CCc1nnc(NS(=O)(=O)c2ccc(NC(=S)NC(=O)/C=C/c3cccs3)cc2)s1,IC50,22.6 µM (active)
